For 1 molecule, minimum effective dose results are on record in patent US20140200210A1, “PHARMACEUTICAL COMPOSITION FOR TREATING PREMATURE EJACULATION AND METHOD FOR TREATING PREMATURE EJACULATION” (CTC BIO, INC., priority 2011, published 2014).

The structures appear in SMILES notation. Where a name gives a salt, the structure may show the parent alone.

In this test the test system is male patients suffering from premature ejaculation. As to the kind of experiment: Phase 2b clinical study, effect evaluation: intravaginal ejaculation latency time (IELT). The format is in vivo, human.

Description: Male patients suffering from premature ejaculation were subject to the following parallel clinical study (Phase 2b) (randomized, double-blind, placebo-controlled and fixed dose study) for evaluating tolerance and determining a proper therapeutic capacity.
• Subjects who passed screening entered a 4-week run-in period, and were randomized in 1:1:1 ratio of 2 groups with clomipramine and 1 group with placebo and subject to a double blind experiment. […] Each subject visited the hospital after taking the test drugs for 4 weeks by on-demand therapy.
Group 0 was administered with a tablet of 15 mg placebo and a tablet of 30 mg placebo, Group 1 was administered with a tablet of 15 mg clomipramine HCl and a tablet of 30 mg placebo, and Group 2 was administered with a tablet of 30 mg clomipramine HCl and a tablet of 15 mg placebo for 4 weeks on-demand at about 2 hours to 6 hours prior to sexual activity. The tablets were orally taken with a glass of water.
Primary effectiveness evaluation variables in this clinical study include an IELT fold change at visit 3 (measuring between 0 and 4 weeks) relative to baseline values (i.e., IELT fold change=Value of IELT measured at visit 3 (0 to 4 weeks)/Value of IELT measured at baseline) in each of Group 0 (with treatment of placebo), Group 1 (with treatment of 15 mg clomipramine HCl) and Group 2 (with treatment of 30 mg clomipramine HCl). […]
(1) After administering placebo and 15 mg of clomipramine, and placebo and 30 mg of clomipramine for the period of 4 weeks, a change (%) of IELT values between 0 to 4 weeks after administration, relative to before administration, was calculated by the equation [Change (%) of IELT Values=(Value of IELT measured at 0 to 4 weeks−Value of IELT measured at baseline)×100/Value of IELT measured at baseline].
(2) After administering placebo and 15 mg of clomipramine, and placebo and 30 mg of clomipramine for the period of 4 weeks, a mean change of IELT values between 0 to 4 weeks after administration was calculated. […]

On to `CN(C)CCCN1c2ccccc2CCc2ccc(Cl)cc21` [clomipramine, clomipramine hydrochloride], for which the minimum effective dose is, setting by setting: (case of ITT1) 30 mg; (cases of ITT2 and ITT3) 15 mg; (considering overall situations) 15 mg.
